Assay results reported in ChEMBL document CHEMBL3885861, “Open TG-GATES”.

Species on record: Rattus norvegicus
Experiment: Open TG-GATES - Regimen: Single
Assay type: toxicity, organism-based, Sprague-Dawley
Design: regimen Single, gender Male, age 6 weeks
Details: in vivo, po, 30 mg/kg, route gavage, dose level Low; for APTT / Bas / Eos / Fbg / Hb / Ht / Lym / MCH / MCHC / MCV / Mono / Neu / PT / Plat / RBC / Ret / WBC: tissue Blood; for KIDNEY_L / KIDNEY_R / KIDNEY_TOTAL: tissue Kidney; for LIVER: tissue Liver; for A/G / ALP / ALT / AST / BUN / CRE / Ca / Cl / DBIL / GLC / IP / K / LDH / Na / PL / RALB / TBIL / TC / TG / TP / gamma-GTP: tissue Plasma

## CCCNC(=O)NS(=O)(=O)c1ccc(Cl)cc1 [CHLORPROPAMIDE]
3 h
  TERMINAL_BW: 200 g
  APTT: 16.8 s
  Bas: 0.4%
  Eos: 0.8%
  Fbg: 301.8 mg/dL
  Hb: 13.1 g/dL
  Ht: 40%
  Lym: 76.8%
  MCH: 20.9 pg
  MCHC: 32.7%
  MCV: 64 fL
  Mono: 3.6%
  Neu: 17.8%
  PT: 15.6 s
  Plat: 122.9 x10_4/uL
  RBC: 625.4 x10_4/ul
  Ret: 9.8%
  WBC: 80.3 x10_2/uL
  KIDNEY_L: 0.9 g
  KIDNEY_R: 0.9 g
  KIDNEY_TOTAL: 1.8 g
  LIVER: 8.7 g
  A/G: 0.9
  ALP: 1308.8 IU/L
  ALT: 44 IU/L
  AST: 74.4 IU/L
  BUN: 10.6 mg/dL
  CRE: 0.2 mg/dL
  Ca: 10.8 mg/dL
  Cl: 106.2 meq/L
  DBIL: 0.008 mg/dL
  GLC: 154.4 mg/dL
  IP: 9.5 mg/dL
  K: 4 meq/L
  LDH: 83.6 IU/L
  Na: 143 meq/L
  PL: 131.4 mg/dL
  RALB: 2.5 g/dL
  TBIL: 0.038 mg/dL
  TC: 74.2 mg/dL
  TG: 47.2 mg/dL
  TP: 5.4 g/dL
  gamma-GTP: 1.2 IU/L
6 h
  TERMINAL_BW: 197.5 g
  APTT: 17.5 s
  Bas: 0.2%
  Eos: 1%
  Fbg: 277.8 mg/dL
  Hb: 13.3 g/dL
  Ht: 40.8%
  Lym: 74.4%
  MCH: 21 pg
  MCHC: 32.7%
  MCV: 64.3 fL
  Mono: 2.8%
  Neu: 20.4%
  PT: 15.4 s
  Plat: 114.9 x10_4/uL
  RBC: 633.4 x10_4/ul
  Ret: 9.6%
  WBC: 80.6 x10_2/uL
  KIDNEY_L: 0.9 g
  KIDNEY_R: 0.9 g
  KIDNEY_TOTAL: 1.8 g
  LIVER: 8.1 g
  A/G: 0.9
  ALP: 1395.6 IU/L
  ALT: 41 IU/L
  AST: 75.4 IU/L
  BUN: 9 mg/dL
  CRE: 0.2 mg/dL
  Ca: 10.5 mg/dL
  Cl: 106.8 meq/L
  DBIL: 0.004 mg/dL
  GLC: 150.8 mg/dL
  IP: 9.4 mg/dL
  K: 4.2 meq/L
  LDH: 72.6 IU/L
  Na: 143 meq/L
  PL: 123.6 mg/dL
  RALB: 2.5 g/dL
  TBIL: 0.036 mg/dL
  TC: 74.2 mg/dL
  TG: 35.4 mg/dL
  TP: 5.2 g/dL
  gamma-GTP: 1 IU/L
9 h
  TERMINAL_BW: 194.6 g
  APTT: 16.9 s
  Bas: 0%
  Eos: 1.2%
  Fbg: 296 mg/dL
  Hb: 13.2 g/dL
  Ht: 40.5%
  Lym: 77.4%
  MCH: 21.4 pg
  MCHC: 32.6%
  MCV: 65.5 fL
  Mono: 3.2%
  Neu: 17.2%
  PT: 15.4 s
  Plat: 118 x10_4/uL
  RBC: 618.6 x10_4/ul
  Ret: 9.1%
  WBC: 84.5 x10_2/uL
  KIDNEY_L: 0.9 g
  KIDNEY_R: 0.9 g
  KIDNEY_TOTAL: 1.7 g
  LIVER: 7.7 g
  A/G: 0.9
  ALP: 1280.4 IU/L
  ALT: 38 IU/L
  AST: 70.8 IU/L
  BUN: 9.8 mg/dL
  CRE: 0.2 mg/dL
  Ca: 10.6 mg/dL
  Cl: 107.8 meq/L
  DBIL: 0.002 mg/dL
  GLC: 158.4 mg/dL
  IP: 9.8 mg/dL
  K: 4.1 meq/L
  LDH: 62.2 IU/L
  Na: 143.4 meq/L
  PL: 134 mg/dL
  RALB: 2.5 g/dL
  TBIL: 0.032 mg/dL
  TC: 81.4 mg/dL
  TG: 43.4 mg/dL
  TP: 5.4 g/dL
  gamma-GTP: 1 IU/L
24 h
  TERMINAL_BW: 210.7 g
  APTT: 26 s
  Bas: 0%
  Eos: 1%
  Fbg: 290 mg/dL
  Hb: 13 g/dL
  Ht: 40.1%
  Lym: 79.2%
  MCH: 21.4 pg
  MCHC: 32.4%
  MCV: 65.9 fL
  Mono: 3%
  Neu: 15.2%
  PT: 15.6 s
  Plat: 120.5 x10_4/uL
  RBC: 608.2 x10_4/ul
  Ret: 8.4%
  WBC: 96.6 x10_2/uL
  KIDNEY_L: 0.9 g
  KIDNEY_R: 0.9 g
  KIDNEY_TOTAL: 1.9 g
  LIVER: 9.6 g
  A/G: 0.9
  ALP: 1710 IU/L
  ALT: 47.6 IU/L
  AST: 73 IU/L
  BUN: 15 mg/dL
  CRE: 0.2 mg/dL
  Ca: 10.8 mg/dL
  Cl: 105.4 meq/L
  DBIL: 0.01 mg/dL
  GLC: 192.8 mg/dL
  IP: 8.4 mg/dL
  K: 4.1 meq/L
  LDH: 78.4 IU/L
  Na: 142.4 meq/L
  PL: 150.2 mg/dL
  RALB: 2.6 g/dL
  TBIL: 0.034 mg/dL
  TC: 84 mg/dL
  TG: 73.8 mg/dL
  TP: 5.5 g/dL
  gamma-GTP: 1 IU/L
